Values joined by “and” are separate entries in the source; they are usually repeats but may differ in a detail not shown here. Equal values may be shown once. Read-outs that look alike come from different tables or passages of the source.
Experiments:
[1] = tested on: spleen lymphocytes of BDF1 mice; conditions: 7 days
Method: (§1) The purpose of this assay is to challenge lymphocytes in microcultures with one or more polyclonal mitogens at concentrations that will induce mitogenesis within 72 hours of stimulation.
(§2) In the mouse model, spleens are removed from different strains of mice and the spleen cells are teased free and suspended in RPMI-1640 tissue culture medium at a concentration of usually 1×10^7 ml. These cells are dispensed at a concentration of 5.0×10^5 cells per microculture well in a 96 well flat bottom 96 well tissue culture plate. All testing of the compounds of this invention or mitogens are done in replicates of 10. The cells are then treated with PHA, Con-A, specific antigens, or buffer only. If in vitro testing is done, varying concentrations of the compounds of this invention or buffer only are added to the cells as well. After treatment with the mitogens and/or compounds of this invention, the cells are incubated for 72 hours. The response of these cells to mitogens and/or the compounds of this invention is assessed using ^14 C-thymidine labeling on the fourth day at a concentration of 0.01 μCi/well. The labeled cells are harvested using a lymphocyte harvestor and placed onto fibrous paper discs. A scintillation cocktail is added to vials contaning the discs and the results are obtained using a LKB-liquid scintillation counter (Model 1216/Rackbeta II). The data is expressed as a ratio of the cpm of the mitogen stimulated group to the control (non-mitogen) treated group=lymphocyte stimulation index (LSI).
(§3) The lymphocyte stimulation assay may be performed directly on spleen cells obtained from various strains of mice not treated with the compounds of this invention or on lymphocytes obtained from […]. […] Alternatively, the mice may be treated in vivo with the compounds of this invention by intraperitoneal multi-dose schedules, followed by sacrifice and harvesting spleen lymphocytes. These cells are then tested for their response to polyclonal mitogens or specific antigens used to immunize the mice. In this sytem however, no additional compound is added to the in vitro lymphocyte stimulation assay system.
Two strains of mice, C57BL/6 and BDF1 are treated for seven days with i.p. administration of either 25, 50, 100, 200, or 400 mg/kg of Cpd. 1 or just buffer. This is followed on the eighth day by a lymphocyte stimulation assay.

L5178Y tumor = conditions: 100 mg/kg i.p., 7 days
Method: (§4) Ten days later the resultant tumor nodule, about 1 cm in size, is surgically excised. If the excision was successful, no subcutaneous tumors develop at the site of implantation. […] These mice are considered to be in the tumor dormant state.
(§5) The effect of Cpd. 1 on the emergence from the L5178Y tumor dormant state is studied by treating forty DBA/2 mice with Cpd. 1 after the mice have undergone the TDS inducing procedure. […] 1 at 100 mg/kg and the remaining twenty mice receive buffer only. A partial peritoneal lavage is performed twenty-five days after the last dose of Cpd. 1 and the peritoneal exudate fluid is plated out for determination of tumor cell numbers (tumor cell quantitative assay). Survival time is recorded out to 90 days after challenge with the viable L5178Y tumor cells. The percent mortality is calculated for each group.
(§6) The effect of Cpd. 1 on the emergence from the L5178Y tumor dormant state was studied by treating forty DBA/2 mice with Cpd. 1 after the mice had undergone the TDS inducing procedure. Two days after the mice were challenged with i.p. administration of 50,000 viable L5178Y tumor cells, twenty of these mice received seven consecutive days of i.p. treatment with Cpd. 1 at 100 mg/kg and the remaining twenty mice received buffer only. A partial peritoneal lavage was performed twenty-five days after the last dose of Cpd. 1 and the peritoneal exudate fluid was plated out for determination of tumor cell numbers (tumor cell quantitative assay). Survival time was recorded out to 114 days after challenge with the viable L5178Y tumor cells. The percent mortality was calculated for each group.

L5178Y tumor cells = conditions: 100 mg/kg i.p., 7 days
Method: as §4, §5, §6

[2] = Dissolution in bicarbonate buffered saline; format: physicochemical; conditions: 0.238 molar bicarbonate buffered saline (0.85%)
[3] = tested on: spleen lymphocytes of SJL/J mice
Method: as §1, §2, §3
Three month old mice of the SJL/J strain, which are T-cell deficient, are treated with i.p. administration of 100, 200, or 400 mg/kg of Cpd. 1 or just buffer for four days. This is followed by a lymphocyte stimulation assay.
An in vivo lymphocyte stimulation assay was performed on SJL/J mice of different ages, either 2, 5, or 10 months. The mice received i.p. injections of either 100 mg/kg of Cpd. 1 or just buffer.

[4] = 100 mg/kg i.p., four days, three month old mice
[5] = 200 mg/kg i.p., four days, three month old mice
[6] = 400 mg/kg i.p., four days, three month old mice

Cc1ccc(C2(O)C(=O)OC3C(O)COC32O)o1.Cc1ccc(C2(O)C(=O)OC3C(O)COC32O)o1.O=C1CCC(=O)O1 (stereo not drawn) [Cpd. 1]
Con-A response ([1]; 400 mg/kg i.p.): slight suppression of the Con-A response | PHA response ([1]; 400 mg/kg i.p.): strong suppression of the PHA response | T-lymphocyte proliferation, PHA ([1]; 50 and 100 mg/kg i.p.): stimulation of T-lymphocyte proliferation | Con-A response ([1]; between 50 and 100 mg/kg i.p.): significantly increased | survival versus untreated controls (L5178Y tumor): significantly greater survival | % Survival (L5178Y tumor; 90 days post-challenge): 55.6% | No. Survivors (L5178Y tumor; 90 days post-challenge): 10 | % Survival (L5178Y tumor; 114 days post-challenge): 82.6% | No. Survivors (L5178Y tumor; 114 days post-challenge): 19 | numbers of tumor cells recovered versus controls (L5178Y tumor cells): significant reduction in the numbers of tumor cells | Frequency of mice, Treated Group (L5178Y tumor cells; 1,000 to 100,000 tumor cells): 7 and 4 | % of Total, Treated Group (L5178Y tumor cells; >100,000 tumor cells): 6% and 4.3% | Frequency of mice, Treated Group (L5178Y tumor cells; >100,000 tumor cells): 1 | dissolution [2]: dissolves completely | Lymphocyte Stimulation Index, Con-A ([3]; 100 mg/kg i.p., age 2 months): 167 | Lymphocyte Stimulation Index, Control (no mitogen) ([3]; 100 mg/kg i.p., age 2 months): 2.3 | Lymphocyte Stimulation Index, PHA ([3]; 100 mg/kg i.p., age 2 months): 32.6 | Lymphocyte Stimulation Index, Con-A ([3]; 100 mg/kg i.p., age 5 months): 12.9 | Lymphocyte Stimulation Index, Control (no mitogen) ([3]; 100 mg/kg i.p., age 5 months): 1.9 | Lymphocyte Stimulation Index, PHA ([3]; 100 mg/kg i.p., age 5 months): 1.16 | Lymphocyte Stimulation Index, Con-A ([3]; 100 mg/kg i.p., age 10 months): 14.5 | Lymphocyte Stimulation Index, Control (no mitogen) ([3]; 100 mg/kg i.p., age 10 months): 2.1 | Lymphocyte Stimulation Index, PHA ([3]; 100 mg/kg i.p., age 10 months): 9.18 | Lymphocyte Stimulation Index, Con-A [3, 4]: 5.01 | Lymphocyte Stimulation Index, Control (no mitogen) [3, 4]: 0.573 | Lymphocyte Stimulation Index, PHA [3, 4]: 1.85 | Con-A response ([3]; 100 mg/kg, 2 months of age): increased | PHA response ([3]; 100 mg/kg, 2 months of age): decreased | mitogenesis response to PHA and Con-A ([3]; 100 mg/kg, 5 months of age): depressed mitogenesis response | PHA and Con-A mitogenic response ([3]; 100 mg/kg, ten month old): significant stimulation | Lymphocyte Stimulation Index, Con-A [3, 5]: 4.57 | Lymphocyte Stimulation Index, Control (no mitogen) [3, 5]: 0.732 | Lymphocyte Stimulation Index, PHA [3, 5]: 1.79 | Lymphocyte Stimulation Index, Con-A [3, 6]: 3.30 | Lymphocyte Stimulation Index, Control (no mitogen) [3, 6]: 0.693 | Lymphocyte Stimulation Index, PHA [3, 6]: 2.31

Source: patent US4620014A, “2-furylbutyrolactones and methods for using same” (priority 1983, dated 1986)
